The text below walks through data of patent publication US10398703B2, “Therapeutic compounds and uses thereof” (Kala Pharmaceuticals, Inc., priority 2013, dated 2019).

Where two headings read alike, the source gives them in different places.

A short description of data set [1]: Back of the eye drug exposure (PK) after topical instillation of compound MPP. It counts as in vivo. The conditions noted are these: rabbit, topical or ocular, 50 μL of 0.5% MPP formulation, MPP 0.5%, 50 μL topical BID 5 days, Dutch-belted rabbits, 8 mm punch. The text has this: Dutch-belted rabbits were used in these studies.
The portion of the retina and choroid collected and analyzed was an 8 mm round punch where the macula is located in humans.

The nature of data set [2]: Mobility of MPP nanoparticles in human cervicovaginal mucus (dark field microscopy). The conditions noted are these: low pH of human cervicovaginal mucus. As to the method:
In order to determine whether the generated nanoparticles have reduced interactions with mucins and are therefore able to move within mucus without becoming trapped, particles were incubated with human cervicovaginal mucus (CVM) and observed via dark field microscopy. In a typical experiment, […] of the nanoparticle suspension was added to 20 μl of CVM. Observations were made in a minimum of three distinct and randomly selected areas of the CVM sample. Control particles with known behavior were used to qualify the CVM sample as appropriate for the assay. For all compounds (except compound 55) listed in Table 4, mobility in mucus was observed and therefore the nanoparticles were deemed to be effective MPP.

The mark [3] stands for this setting: choroid, read-out: AUC0-last Choroid.
[4] abbreviates: choroid, read-out: Cmax Choroid.
Where [5] appears, read: retina, read-out: AUC0-last Retina.

As for `COc1cc2c(Oc3ccc(NC(=O)Nc4cc(C)ccc4F)c(Cl)c3)ncnc2cc1OCCCN1CCC2(CC1)COC2` [Compound 12], the AUC(0-t) in data set [1] (setting [3]) was determined as 2.45 µM·h; in data set [1] (setting [5]), 0.308 µM·h. Also, the Cmax (in general, the peak of the concentration-time curve) in data set [1] (setting [4]) turned out to be 265 nM; in data set [1] (retina, read-out: Cmax Retina), 39 nM.

With `COc1cc2c(Oc3ccc(NC(=O)Nc4cc(C)ccc4F)c(Cl)c3)ccnc2cc1OCCCN1CCC2(CC1)COC2` [Compound 25], the figures for the AUC(0-t) in data set [1] (setting [3]) and in data set [1] (setting [5]) were 5.79 µM·h and 0.297 µM·h, respectively. For the same molecule, the Cmax is 574 nM in data set [1] (setting [4]) and 33 nM in data set [1] (retina, read-out: Cmax Retina).

Turning to `COc1cc2ncnc(Oc3ccc(NC(=O)Nc4ccc(CN5CCN(C)CC5)cc4)c(Cl)c3)c2cc1OC` [Compound 55], in data set [2], the “solubility in CVM” value is “soluble in the low pH of CVM”.

Take `COc1cc2c(Oc3ccc(NC(=O)Nc4cc(C)on4)c(Cl)c3)ncnc2cc1OCCCN1CCC2(CC1)COC2` [Compound 9]: the AUC(0-t) in data set [1] (setting [3]) came to 5.4 µM·h; in data set [1] (setting [5]), 0.915 µM·h. Besides, the Cmax in data set [1] (setting [4]) amounted to 693 nM; in data set [1] (retina, read-out: Cmax Retina) it was 110 nM.
